The values that follow are results of earlier work, collected in patent US9272137B2, “Transdermal methods and systems for the delivery of anti-migraine compounds” (Teva Pharmaceuticals International GmbH, priority 2006, dated 2016).

As for `CNS(=O)(=O)Cc1ccc2[nH]cc(CCN(C)C)c2c1` [Sumatriptan], under “in vivo”, the serum elimination half-life was 2 h. Also, the “time within which most of the active drug is eliminated” value (majority of patients) was 4 to 6 h.
